From patent US20050064382A1, “Method of prevention of lysosomal leakage in eukaryotic cells by using 6-methyluracil based water-soluble compounds and method of producing thereof” (priority 2002, published 2005)

Assays:
[1] = system: neurons from rat embryos brains; test: Survival of rat embryo brain neurons after mechanical damage; assay type: cell-based; settings: for number of live neurons vs culture without Glucural: 500 mkg/ml
Source text: One particularly attractive application of the cytoprotective quality of 6-methyluracil compounds is to extend the life span of primer cell cultures. Primer cell cultures are cell cultures obtained from various tissues. They are used routinely for new drug screening in pharmaceutical industry. The problem associated with many primer cell cultures is their general inability to propagate and grow, leading to their early death and therefore limiting their use in drug research. For example, a rat embryo brain neuron cell culture has about 80% mortality in 12-14 days.
The following is an example of the difficulty in maintaining the survival rate of primer cell cultures. […] The term “growing” of these primer cell cultures means maintaining their survival for a 10-15 day period. But these cell cultures are very valuable as test objects and are commonly used for the initial testing of new drugs (drug screening). Glucural was tested on the neurons from rat embryos brains that were transferred into cell cultures. The viability of these neurons was tested during 2 stages of the production of embryonic neuron cell cultures: 1) mechanical disassembly and washing, and 2) the “growing” of the cell culture.
After 7 days, this ratio increased to nearly triple as shown on FIGS. 1 and 2.

[2] = standard tests by Dr. Kirk Sperber, unpublished data; cited from earlier work
Drosophila = test: X-ray caused loss of X-chromosomes in late oocyte of Drosophila; assay type: in vivo; settings: 1000 Roentgens
[3] = system: Mouse erythroleukemia (MEL) cells; test: Growth activity following maximal cell damage (two freeze/thaw cycles, 10% DMSO); assay type: cell-based
Protocol: Mouse erythroleukemia (MEL) cells were damaged from exposure to two freeze/thaw cycles. The cells were then grown in the presence of 10% dimethylsulfoxide (DMSO), a substance known to damage cell membranes. […] The cells were then subjected to two freeze/thaw cycles (the cells were quickly brought to −135° C., incubated for 1 hour at −135° C. and quickly thawed to 100% humidity and 37° C.). The cell concentration was then determined by counting, using a hematocytometer. The experiments were done in duplicate.

[4] = system: ATT-20 cells (anterior lobe of the pituitary gland, corticotrophs); test: Storage of ATT-20 cells at low temperature, viability by well bottom coverage; assay type: cell-based; settings: 10% Glycerol
Protocol: The goal of the study was to assess the influence of Glucural on cell recovery of different mammalian cells suspended in various cryo-protectors. A single layer of the rat thyroid-derived cell line FRTL-5 was grown in VPF-12 medium containing 10% calf serum (C.S.) in Petri dishes (10 cm) stored in an environment of 5% CO2, 100% humidity and at 37° C. Cell coverage on the Petri dish bottom reached 80-90% over 6-8 days. A single-layer cell culture of the cell line from the anterior lobe of the pituitary gland (corticotrophs) of ATT-20 was grown in similar fashion but in D-MEM medium containing 10% C.S.
After exposure, cell suspensions were melted quickly in aliquots with cell suspension equal to 0.2 or 0.4 ml per well. The growing period varied depending on conditions of cell storage. All trials were performed in duplicate. Cell viability was estimated by the percentage of the well bottom covered by cells.
The same method was used here as in tests with MEL cells. Cryo-protectors used were not optimal for FRTL-5 and ATT-20 cells. Conditions of freezing were not optimal in assays # 1, 5 and 6.

[5] = system: HUCVEC exposed to human TNF-alpha; test: HUCVEC Assays 4-6: exposure to human TNF-alpha, trypan-blue test; assay type: cell-based; settings: Glucural 500 mkg/ml
Protocol: To test for cell damage, HUCVEC were exposed for period of 6 to 24 hours to the human TNF-alpha. The trypan-blue test was used. After exposure, mono-layers were removed by trypsin treatment. Results were estimated based on the percentage of colored dead cells in the mono-layer.

[6] = system: Human umbilical cord vein endothelial cells (HUCVEC); test: HUCVEC Assay 1: enzymatic and mechanical damage; assay type: cell-based; settings: after 7 days, without change of medium
Protocol: Glucural was also tested on two primer cell cultures for protection against cell death in sub-optimal conditions.
Human umbilical cord vein endothelial cells (HUCVEC) were isolated from freshly obtained human umbilical cords in accordance with known methods. HUCVEC were grown in multi-well plates. After saturation of the wells, the assays were initiated. Four wells were used for each experimental group. To cause “mechanical” damage, a higher (2-2½ times) centrifugal speed was used to pick up cells after trypsin treatment. To cause enzymatic damage, full-strength trypsin solution was used instead of the recommended diluted concentration. All assays were started from the last change of medium in wells with saturated cell culture (well bottoms were covered completely by cells). Results were estimated from the percentage of the bottom covered by cells on the last day of the assay.
Assay 1. Enzymatic and mechanical damage to cells: Growth after 7 days, without change of medium.

Shelf life = assay type: physicochemical; settings: ambient temperatures
MEL cells = test: Moderate damage: storage three days at −135° C. then growth in 1% DMSO; assay type: cell-based, mouse; settings: 24 hours
Protocol: The cells were then brought to −135° C. over a two-hour period and stored at this temperature for 3 days. […] The number of cells per ml. is x 10^4, columns represent different assays.

complex of 2,4-dihydroxy-6-methylpyrimidine with N-methyl-D-glucamine [Glucural]
increase of life span of rat embryo brain neuron cell culture [1]: more than two fold
number of live neurons vs culture without Glucural ([1]; after 7 days): nearly triple
number of live neurons vs culture without Glucural ([1]; after one day): more than double
anti-inflammatory action compared with thalidomide [2]: equal anti-inflammatory action as thalidomide
Frequency of the loss of X-chromosomes, % (Drosophila; 1.0 mkg/female): 1.7 ± 0.21%
Frequency of the loss of X-chromosomes, % (Drosophila; 2.0 mkg/female): 1.1 ± 0.20%
Frequency of the loss of X-chromosomes, % (Drosophila; 2.5 mkg/female): 0.9 ± 0.18%
Frequency of the loss of X-chromosomes, % (Drosophila; 5.0 mkg/female): 0.7 ± 0.14%
Frequency of the loss of X-chromosomes, % (Drosophila; 10.0 mkg/female): 1.2 ± 0.19%
The number of cells per 1 ml ([3]; Glucural 5 mkg/ml): 0 ×10^4
The number of cells per 1 ml ([3]; Glucural 10 mkg/ml): 0 ×10^4
The number of cells per 1 ml ([3]; Glucural 25 mkg/ml): 53 ± 7 ×10^4
The number of cells per 1 ml ([3]; Glucural 50 mkg/ml): 107 ± 7 ×10^4
Percentage of well bottom covered by cells ([4]; #4 AtT-20 (3 days), −190° C., Glucural 50 mg/ml): 50-60%
Percentage of well bottom covered by cells ([4]; #4 AtT-20 (3 days), −190° C., Glucural 100 mg/ml): 80-90%
Percentage of well bottom covered by cells ([4]; #5 AtT-20 (44 days), −70° C., Glucural 100 mg/ml): 40-50%
Percentage of well bottom covered by cells ([4]; #5 AtT-20 (44 days), −70° C., Glucural 200 mg/ml): 30-40%
Percentage of well bottom covered by cells ([4]; #6 AtT-20 (46 days), −70° C., additional melting freezing, Glucural 100 mg/ml): 20-30%
Percentage of well bottom covered by cells ([4]; #6 AtT-20 (46 days), −70° C., additional melting freezing, Glucural 200 mg/ml): 10-20%
Percent of dead cells in mono-layer ([5]; Assay 4, 24 hours, TNF-alpha 20 ng/ml): 10.3 ± 1.3%
Percent of dead cells in mono-layer ([5]; Assay 4, 24 hours, no TNF-alpha): 4.4 ± 0.4%
Percent of dead cells in mono-layer ([5]; Assay 5, 8 hours, TNF-alpha 10 ng/ml): 4.1 ± 0.4%
Percent of dead cells in mono-layer ([5]; Assay 5, 8 hours, TNF-alpha 20 ng/ml): 5.4 ± 0.4%
Percent of dead cells in mono-layer ([5]; Assay 5, 8 hours, no TNF-alpha): 5.7 ± 0.5%
Percent of dead cells in mono-layer ([5]; Assay 6, 6 hours, TNF-alpha 40 ng/ml): 10.9 ± 3.4%
Percent of dead cells in mono-layer ([5]; Assay 6, 6 hours, no TNF-alpha): 13.8 ± 2.7%
Percent of well-bottom covered by cells ([6]; Glucural 40 mkg/ml): 2-5%
Percent of well-bottom covered by cells ([6]; Glucural 400 mkg/ml): 70-80%
shelf life (Shelf life): more than 10 years
number of cells per ml, Moderate damage (MEL cells; Glucural 25 mkg/ml): 58 ± 3 x 10^4
number of cells per ml, Moderate damage (MEL cells; Glucural 50 mkg/ml): 76 ± 1 x 10^4
number of cells per ml, Moderate damage (MEL cells; Glucural 100 mkg/ml): 82 ± 1 x 10^4
number of cells per ml, Moderate damage (MEL cells; Glucural 200 mkg/ml): 163 ± 3 x 10^4
